Source: patent US5104859A, “Continuous administration of adenosine to reduce pulmonary vascular resistance” (priority 1990, dated 1992)

Key:
[1] = test system: myocardial blood flow; details: 0.05 to about 0.1 mg/kg/min
Excerpt: Patients requiring abdominal vascular surgery, such as surgery for an aortic aneurysm, frequently also suffer from ischemic heart disease, or insufficient blood flow to the heart tissue, which may present undesirable complications in such surgery.
For such application, the rate of adenosine administration should be such that there is no more than a 10-20 per cent reduction in blood pressure.

[2] = test system: mean arterial blood pressure; details: dogs, cited from earlier work
[3] = test system: platelets; assay: Platelet protection during cardiopulmonary bypass; format: in vivo, human
Protocol: Twenty-five patients scheduled for coronary artery bypass surgery were randomly assigned to two groups--one with adenosine infusion (n=13) and the other with placebo infusion (n=12).
Intravenous anesthesia was used, either high-dose fentanyl (100-150 ug/kg) or balanced anesthesia (thiopental, fentanyl, diazepam and N2 O/O2.
During cardiopulmonary bypass (CPB), mean arterial blood pressure (MABP) above 70 mmHg was treated with the vasodilator sodium nitroprusside (SNP), except in the final phase or rewarming. CPB was performed with SARN roller pump and a Shiley oxygenator (100A) primed with 2000 ml crystalloid solution (75 mg heparin). The perfusion rate was kept at approximately […] body surface. Moderate hypothermia (25° C.) was induced. Cardioplegia was obtained with Ringer's solution (with added potassium up to 20 mM/1). Heparin (3 mg/kg) was administered as a bolus injection before cannulation. The heparin effect was controlled by measurements of activated clotting time. (Hemocron® Int. Technidyne Corp, USA). […] At the termination of CPB, the heparin effect was antagonized with protamine (c. 1.3 mg/mg heparin). ACT was checked 10-20 min after the protamine injection. ACT values 120 sec were considered satisfactory.
Platelet count (Linson 431 A cell counter) and hematocrit were determined in arterial samples before anesthesia, after thoracotomy, during CPB at 10, 20, 40, 60, 80 and 100 min, 30 min after CPB and on the postoperative day. Platelet counts were expressed in percentage of preanesthesia levels and were corrected for hemodilution. MABP was monitored continuously via a catheter introduced in the radial artery. All patients received hypertonic mannitol (1-1.5 g/kg) during CPB and urine production was calculated as ml/.min of CPB (Table VI). […]
Statistical significance (controls v. adenosine group) was determinted with Student's t-test for unpaired data. For significance within the groups the Wilcoxon Rank Sum test was used. p […] 0.05 was regarded as significant.

## Nc1ncnc2c1ncn2[C@@H]1O[C@H](CO)[C@@H](O)[C@H]1O [adenosine]
[1]
  increase of cardiac output: 10 to 20%
  reduction of blood pressure: 10 to 20 per cent
[1]; words
  oxygen consumption: without change in oxygen consumption
[2]; 50 ug/kg/minute adenosine
  mean arterial pressure with adenosine after dipyridamole: 40 mm/Hg
[2]; pilot study, as much as
  adenosine dose required for induction of hypotension without dipyridamole: 5 to 10 mg/kg/min
[3]; 60 min to end of CPB and 30 min after CPB
  intergroup difference in platelet counts: significant intergroup difference in platelet counts
[3]; cardiopulmonary bypass
  infusion rate effective in protecting platelets: about 100 ug/kg/min
[3]; during CPB, 10 minutes
  Platelet Count; % of Awake Count: 96 % of Awake Count
[3]; during CPB, 20 minutes
  Platelet Count; % of Awake Count: 87 % of Awake Count
[3]; during CPB, 40 minutes
  Platelet Count; % of Awake Count: 85 % of Awake Count
[3]; during CPB, 60 minutes
  Platelet Count; % of Awake Count: 91 % of Awake Count
[3]; during CPB, 80 minutes
  Platelet Count; % of Awake Count: 100 % of Awake Count
[3]; during CPB, 100 minutes
  Platelet Count; % of Awake Count: 97 % of Awake Count
[3]; during adenosine infusion
  initial platelet reduction: small, and was significant only at 20 and 40 minutes on CPB
[3]; post CPB, 30 minutes
  Platelet Count; % of Awake Count: 88 % of Awake Count
[3]; post CPB, 24 hours
  Platelet Count; % of Awake Count: 60 % of Awake Count
